Source: patent US9120749B2, “Quinoline derivatives and MELK inhibitors containing the same” (ONCOTHERAPY SCIENCE, INC., priority 2010, dated 2015)

What was measured:
MELK = MELK (Homo sapiens, UniProt Q14680); experiment: Kinase assay: MELK activity, phosphorylation of FITC-labeled histone H3 peptide measured by IMAP fluorescence polarization; type: biochemical; conditions: read-out: IC50 (μM) (kinase assay)
Method in brief: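 Kinase reactions ran with or without test compound (final DMSO 1%) on a fluorescein-tagged H3 peptide. Progressive binding solution was added to terminate them. After a half-hour room-temperature incubation, polarization was measured.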

HT-1197 cells = experiment: Cell-based assay: anti-proliferative activity, Cell Counting Kit-8, 72 hours (HT-1197, negative control without MELK expression); conditions: Homo sapiens, HT1197, 72 h, HT1197 cells (negative control, no MELK expression), 72 hours
Method in brief: (§1)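 First, lysates underwent western blotting with anti-MELK antibody to establish expression. Next, cells went into 96-well plates. Then candidate inhibitors were added. Finally, viability was determined by CCK-8 at 72 h and IC50 computed.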

T47D cells = experiment: Cell-based assay: anti-proliferative activity, Cell Counting Kit-8, 72 hours (T47D); conditions: Homo sapiens, T47D, 72 h
Method in brief: as §1

A549 cells = experiment: Cell-based assay: anti-proliferative activity, Cell Counting Kit-8, 72 hours (A549); conditions: Homo sapiens, A549, 72 h, 72 hours
Method in brief: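 Cell Counting Kit-8 read-out of A549 growth after 72 hours of inhibitor exposure, cells plated in 96-well format. Values reported as IC50.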

DU4475 cells = experiment: Cell-based assay: anti-proliferative activity, Cell Counting Kit-8, 72 hours (DU4475); conditions: Homo sapiens, DU-4475, 72 h

Chain of MELK (Q14680 whole entry, looked up): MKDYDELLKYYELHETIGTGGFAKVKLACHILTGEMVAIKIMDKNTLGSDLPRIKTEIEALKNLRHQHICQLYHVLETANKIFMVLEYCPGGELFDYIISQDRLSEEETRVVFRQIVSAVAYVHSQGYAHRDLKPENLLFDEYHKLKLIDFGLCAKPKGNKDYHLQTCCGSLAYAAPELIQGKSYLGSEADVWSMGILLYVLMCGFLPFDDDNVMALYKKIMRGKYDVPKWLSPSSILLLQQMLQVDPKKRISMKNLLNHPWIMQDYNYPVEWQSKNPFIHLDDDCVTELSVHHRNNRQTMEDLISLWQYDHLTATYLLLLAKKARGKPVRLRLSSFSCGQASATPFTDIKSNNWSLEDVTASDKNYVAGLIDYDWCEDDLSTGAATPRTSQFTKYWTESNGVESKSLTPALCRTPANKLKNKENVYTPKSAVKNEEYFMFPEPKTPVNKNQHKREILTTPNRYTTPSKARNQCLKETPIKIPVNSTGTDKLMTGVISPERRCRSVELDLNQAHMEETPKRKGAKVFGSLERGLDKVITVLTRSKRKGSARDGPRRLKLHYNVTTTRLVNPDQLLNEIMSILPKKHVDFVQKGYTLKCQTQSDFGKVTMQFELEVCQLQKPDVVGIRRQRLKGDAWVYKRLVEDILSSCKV

Compound | IC50 (MELK) [µM] | IC50 (HT-1197 cells) [µM] | IC50 (T47D cells) [µM] | IC50 (A549 cells) [µM] | IC50 (DU4475 cells) [µM]
CC(=O)c1cnc2ccc(-c3cc(F)c(O)c(Cl)c3)cc2c1N[C@@H]1CC[C@@H](CN(C)C)C1 [Example 717, 1-(6-(3-chloro-5-fluoro-4-hydroxyphenyl)-4-((1R,3R)-3-((dimethylamino)methyl)cyclopentylamino)quinolin-3-yl)ethanone] | 0.011 | 2 | 0.42 | 0.65 | 0.34
CN(C)CC(O)c1ccc(Nc2c(C(=O)C3CC3)cnc3ccc(-c4cc(Cl)c(O)c(Cl)c4)cc23)cc1 (centres unmarked) [Example 709, Cyclopropyl{6-(3,5-dichloro-4-hydroxyphenyl)-4-[4-(2-(dimethylamino)-1-hydroxyethyl)phenylamino]quinolin-3-yl}methanone] | 0.0035 | 3.8 | 0.2 | 0.14 | 0.077
CN(C)Cc1ccc(Nc2c(C(=O)C3CC3)cnc3ccc(-c4cc(Cl)c(O)c(Cl)c4)cc23)cn1 [Example 657, Cyclopropyl{6-(3,5-dichloro-4-hydroxyphenyl)-4-[6-((dimethylamino)methyl)pyridin-3-ylamino]quinolin-3-yl}methanone] | 0.0089 | 2.8 | 0.31 | 0.18 | 0.098
COc1cc(-c2ccc3ncc(C(=O)C4CC4)c(N[C@H]4CC[C@H](CN(C)CCO)CC4)c3c2)cc(Cl)c1O [Example 633] | 0.0016 | 2.3 | 0.21 | 0.12 | 0.15
O=C(c1cnc2ccc(-c3cc(F)c(O)c(Cl)c3)cc2c1NC1CCNCC1)C1CC1 [Example 719, (6-(3-chloro-5-fluoro-4-hydroxyphenyl)-4-(piperidin-4-ylamino)quinolin-3-yl)(cyclopropyl)methanone] | 0.0092 | 10 | 0.32 | 0.69 | 0.17
COc1cc(-c2ccc3ncc(C(=O)C4CC4)c(Nc4ccc(NCCO)nc4)c3c2)cc(Cl)c1O [Example 677, (6-(3-chloro-4-hydroxy-5-methoxyphenyl)-4-(6-(2-hydroxyethylamino)pyridin-3-ylamino)quinolin-3-yl)(cyclopropyl)methanone] | 0.014 | 1.5 | 0.33 | 0.36 | 0.38
COc1cc(-c2ccc3ncc(C(=O)C4CC4)c(NC4CCC(C)(N)CC4)c3c2)cc(Cl)c1O (centres unmarked) [Example 639, [4-(4-Amino-4-methylcyclohexylamino)-6-(3-chloro-4-hydroxy-5-methoxyphenyl)quinolin-3-yl](cyclopropyl)methanone] | 0.0012 | 0.46 | 0.1 | 0.09 | 0.062
CC(C)C(=O)c1cnc2ccc(-c3cc(Cl)c(O)c(Cl)c3)cc2c1Nc1ccc(CN(C)C)cc1 [Example 641, 1-(6-(3,5-dichloro-4-hydroxyphenyl)-4-(4-((dimethylamino)methyl)phenylamino)quinolin-3-yl)-2-methylpropan-1-one] | 0.0076 | 0.74 | 0.22 | 0.23 | 0.097
CC(=O)c1cnc2ccc(-c3cc(F)c(O)c(Cl)c3)cc2c1N[C@H]1CC[C@H](CCN(C)C)CC1 [Example 741, 1-(6-(3-chloro-5-fluoro-4-hydroxyphenyl)-4-((trans-4-(2-(dimethylamino)ethyl)cyclohexyl)amino)quinolin-3-yl)ethanone] | 0.0048 | 2 | 0.037 | 0.085 | 0.062
N[C@@H]1CCCN(c2ccc(Nc3c(C(=O)C4CC4)cnc4ccc(-c5cc(F)c(O)c(Cl)c5)cc34)cn2)C1 [Example 651, (R)-(4-(6-(3-aminopiperidin-1-yl)pyridin-3-ylamino)-6-(3-chloro-5-fluoro-4-hydroxyphenyl)quinolin-3-yl)(cyclopropyl)methanone] | 0.00076 | 0.12 | 0.0054 | 0.0075 | 0.0071
